Measured values taken from US6958360B2, “Attractant pheromone for the Colorado potato beetle” (The United States of America as represented by the …, priority 2001, dated 2005).
“Also recorded” adds a separate entry of the source. Marks after values point to notes of the source that are not given here.

Key:
CPB adult antenna = experiment: Coupled GC/electroantennogram detection (GC/EAD, EAG); set-up: species or system Leptinotarsa decemlineata
Protocol: Vertical bars represent standard errors (N=6, 3 males and 3 females).
GC/EAD analysis of volatile collections: One microlitre samples of volatile collections were injected into a Hewlett Packard™ Model 5890A gas chromatograph (GC) equipped with an HP-5 capillary column (crosslinked 5% PH ME Siloxane; film thickness 0.25 μm; length 30 m; i.d. 0.25 mm) and flame ionization detector (FID). The effluent from the column was split using a Gerstel™ GraphPack-3D/2 splitter with a ratio of ˜1 to the GC (FID): 4 to an electroantennogram preparation of a CPB adult (EAD). The EAD preparation was an adult CPB antenna removed and mounted between two glass capillary electrodes filled with 0.1M NaCl. Ag—AgCl wires in the glass capillaries. An effluent conditioning assembly to carry GC effluent over a CPB antennal preparation, hardware, and software for data collection and analyses using a computer were obtained from SYNTECH (Hilversum, the Netherlands). After an initial temperature of 50° C. held for 2 minutes following injection, the GC oven increased at 15° C./min to 235° C. which was held for 8 minutes.
(§1) Sensitivity of antennal olfactory receptors for the racemate and optical isomers of the male specific compound were tested using coupled GC/EAD and single sensillum recording techniques. GC/EAD tests involved injection of 1 μl of serial dilutions of 3,7-dimethyl-2-oxo-oct-6-ene-1,3-diol (CPB I).

[1] = test system: antennal olfactory receptors (short sensillum on the penultimate antennal segment of a CPB); experiment: Single sensillum (single cell) recording of receptor neuron response; set-up: species or system Leptinotarsa decemlineata; details: 100 ng source load; solvent control 8
Protocol: as §1

[2] = test system: Colorado potato beetle (CPB); experiment: Open Y-track olfactometer laboratory behavioral bioassay, pheromone and plant volatile blends; type: in vivo, Leptinotarsa decemlineata
Protocol: Insects: All life stages were reared on potted potato plants kept in screened cages inside incubators set for 16L:8D, 25° C. during photophase, 23° C. during scotophase, and 80% R.H. Upon emergence adult beetles were kept individually in plastic cups with perforated plastic snap-on lids, and provided with clean pieces of paper toweling and potato foliage daily.
Bioassay apparatus and protocol: Stock solutions of test compounds, e.g. (S)-CPB I, and individual plant volatiles 2-phenylethanol, nonanal and (±)-linalool, were prepared at 10 μg/μl in hexane. Serial dilutions were made to obtain a test solution of 0.1 μg/μl. Each bioassay treatment of CPB I used a 10 μl aliquot of test solution, or a total of 1 μg of neat material. A […] stock solution of a 3-component blend of selected potato volatiles, (Z)-3-hexenyl acetate, linalool, and methyl salicylate, was prepared as follows: 8.3 μl of each was added to 975 μl of mineral oil, creating a solution of 25 μg of blend components/μl. This stock solution was diluted to obtain a solution of 2.5 μg of blend components/μl. Each bioassay treatment of blend used a 20 μl aliquot of test solution, or a total of 50 μg (16.67 μg/component) of the components.
Prior to testing at age 7-14 days, unmated insects were held individually in 5.5 oz. cups, provided with fresh potato foliage on a continuous basis, and maintained under incubator conditions of 16L:8D, 80-90% R.H., and “day” and “night” temperatures of 25° C. and 23° C., respectively. On the day of testing, insects were transferred to smaller 1 oz. cups and held for 1-3 hrs with moist filter paper but no foliage, then held in darkness for an additional 1-2 hrs.
Individual chemicals and chemical blends were tested for activity in an open Y-track olfactometer modified after Visser and Piron (1998) and described in detail by Dickens (1999; 2000; and Dickens, J. C., et al., Breaking a paradigm: male-produced aggregation pheromone for Colorado potato beetle. Journal of Experimental Biology, 205: 1925-1933 (2002)). In brief, odorous stimuli emanating from synthetic blends on filter paper discs (2.5 cm dia.; Whatman™ #1 filter paper) in 500 ml Ehrlenmeyer flasks were delivered to either side of the device. Test odorants were pipetted onto 3-cm diam. filter paper disks, which were then transferred, using long forceps, into the Erlenmeyer flasks used in the assay. If only a single test solution were being used per treatment, it was placed in the center of the filter paper; if 2 test solutions were being used per treatment, the mineral oil solution was placed in the center, and the hexane solution was spotted around the edge of the filter paper disk. Treatments were replaced after 30 minutes of testing in order to minimize variation in odor concentrations. The location of the chemical blend was switched from one side of the bioassay apparatus to the other side midway through each run in order to avoid bias not associated with the experimental treatment. Hydrocarbon free air that was humidified by passing through distilled water carried the odor molecules to either arm of the bioassay apparatus. Airflow was regulated to 1 l/min by flow meters. Experiments were conducted in a darkened room at 22° C. in which the only source of light was that associated with the bioassay device. For all bioassays at least 40 adults (20 males and 20 females) were tested. Orientation was scored as soon as the test insect had moved completely from the horizontal to one of the 45° angle extension arms of the bioassay device. Following each test, the bioassay device was cleaned with acetone to remove contamination left by the insect.
Statistical analysis: Laboratory bioassays were assessed for significant differences by the hypothesis on binomial proportions based on the standard normal approximation (Brase and Brase, 1983).

Question: Which “Mean EAG (in words)” value (CPB adult antenna; 10 ng injection, males and females combined) does the source give for `CC(C)=CCC[C@](C)(O)C(=O)CO` [(S)-CPB I, (S)-3,7-dimethyl-2-oxo-oct-6-ene-1,3-diol] here?
Answer: significantly greater for the (S)-enantiomer than the (R)-enantiomer

Question: And the “EAD response to compound in volatile collections (in words)” value (CPB adult antenna; volatiles from potato plants / CPB feeding on plant)?
Answer: a large EAD was consistently present

Question: What about the “action potentials during 500 msec following the initial phasic increase” value [1] of the same compound?
Answer: 25 action potentials

Question: What about the “Female % to A.” value ([2]; B = Control (solvent)) of the same compound?
Answer: 90%**

Question: And the “Male % to A.” value ([2]; B = Control (solvent))?
Answer: 90%**

Question: And the “Total % to A.” value ([2]; B = Control (solvent))?
Answer: 90%**

Question: And the “Female % to A.” value ([2]; B = Plant blend)?
Answer: 50%

Question: What about the “Male % to A.” value ([2]; B = Plant blend) of the same compound?
Answer: 50%

Question: What about the “Total % to A.” value ([2]; B = Plant blend) of the same compound?
Answer: 50%

Question: And the “attraction / preference (in words)” value ([2]; comparator as in the treatment pair of Table 2)?
Answer: attracted both male and female beetles; also recorded: no preference was shown for either attractant
